This is an account of results in patent publication US20160220557A1, “USE OF ACETYL-COA CARBOXYLASE INHIBITORS FOR TREATING ACNE VULGARIS” (PFIZER INC., priority 2013, published 2016).

Experiment [1] deals with T1, recombinant human ACC1 (rhACC1) (Homo sapiens, UniProt Q13085, DEL44-44).
T1 construct: His6 (N); made in house; host or cells: SF9 insect cells (baculovirus)
The experiment can be described thus: Transcreener ADP detection FP assay, recombinant human ACC1 inhibition. To be noted: recombinant human ACC1, 50 μM ATP; read-out: Transcreener Assay hACC1 IC50. In kind it is biochemical.

The target of experiment [2] is T2, recombinant human ACC2 (rhACC2) (Homo sapiens, UniProt O00763, V2141I).
T2 construct: made in house; host or cells: CHO cells, tetracycline-induced (pcDNA5 FRT TO-TOPO)
T2 sequence (O00763 whole entry V2141I): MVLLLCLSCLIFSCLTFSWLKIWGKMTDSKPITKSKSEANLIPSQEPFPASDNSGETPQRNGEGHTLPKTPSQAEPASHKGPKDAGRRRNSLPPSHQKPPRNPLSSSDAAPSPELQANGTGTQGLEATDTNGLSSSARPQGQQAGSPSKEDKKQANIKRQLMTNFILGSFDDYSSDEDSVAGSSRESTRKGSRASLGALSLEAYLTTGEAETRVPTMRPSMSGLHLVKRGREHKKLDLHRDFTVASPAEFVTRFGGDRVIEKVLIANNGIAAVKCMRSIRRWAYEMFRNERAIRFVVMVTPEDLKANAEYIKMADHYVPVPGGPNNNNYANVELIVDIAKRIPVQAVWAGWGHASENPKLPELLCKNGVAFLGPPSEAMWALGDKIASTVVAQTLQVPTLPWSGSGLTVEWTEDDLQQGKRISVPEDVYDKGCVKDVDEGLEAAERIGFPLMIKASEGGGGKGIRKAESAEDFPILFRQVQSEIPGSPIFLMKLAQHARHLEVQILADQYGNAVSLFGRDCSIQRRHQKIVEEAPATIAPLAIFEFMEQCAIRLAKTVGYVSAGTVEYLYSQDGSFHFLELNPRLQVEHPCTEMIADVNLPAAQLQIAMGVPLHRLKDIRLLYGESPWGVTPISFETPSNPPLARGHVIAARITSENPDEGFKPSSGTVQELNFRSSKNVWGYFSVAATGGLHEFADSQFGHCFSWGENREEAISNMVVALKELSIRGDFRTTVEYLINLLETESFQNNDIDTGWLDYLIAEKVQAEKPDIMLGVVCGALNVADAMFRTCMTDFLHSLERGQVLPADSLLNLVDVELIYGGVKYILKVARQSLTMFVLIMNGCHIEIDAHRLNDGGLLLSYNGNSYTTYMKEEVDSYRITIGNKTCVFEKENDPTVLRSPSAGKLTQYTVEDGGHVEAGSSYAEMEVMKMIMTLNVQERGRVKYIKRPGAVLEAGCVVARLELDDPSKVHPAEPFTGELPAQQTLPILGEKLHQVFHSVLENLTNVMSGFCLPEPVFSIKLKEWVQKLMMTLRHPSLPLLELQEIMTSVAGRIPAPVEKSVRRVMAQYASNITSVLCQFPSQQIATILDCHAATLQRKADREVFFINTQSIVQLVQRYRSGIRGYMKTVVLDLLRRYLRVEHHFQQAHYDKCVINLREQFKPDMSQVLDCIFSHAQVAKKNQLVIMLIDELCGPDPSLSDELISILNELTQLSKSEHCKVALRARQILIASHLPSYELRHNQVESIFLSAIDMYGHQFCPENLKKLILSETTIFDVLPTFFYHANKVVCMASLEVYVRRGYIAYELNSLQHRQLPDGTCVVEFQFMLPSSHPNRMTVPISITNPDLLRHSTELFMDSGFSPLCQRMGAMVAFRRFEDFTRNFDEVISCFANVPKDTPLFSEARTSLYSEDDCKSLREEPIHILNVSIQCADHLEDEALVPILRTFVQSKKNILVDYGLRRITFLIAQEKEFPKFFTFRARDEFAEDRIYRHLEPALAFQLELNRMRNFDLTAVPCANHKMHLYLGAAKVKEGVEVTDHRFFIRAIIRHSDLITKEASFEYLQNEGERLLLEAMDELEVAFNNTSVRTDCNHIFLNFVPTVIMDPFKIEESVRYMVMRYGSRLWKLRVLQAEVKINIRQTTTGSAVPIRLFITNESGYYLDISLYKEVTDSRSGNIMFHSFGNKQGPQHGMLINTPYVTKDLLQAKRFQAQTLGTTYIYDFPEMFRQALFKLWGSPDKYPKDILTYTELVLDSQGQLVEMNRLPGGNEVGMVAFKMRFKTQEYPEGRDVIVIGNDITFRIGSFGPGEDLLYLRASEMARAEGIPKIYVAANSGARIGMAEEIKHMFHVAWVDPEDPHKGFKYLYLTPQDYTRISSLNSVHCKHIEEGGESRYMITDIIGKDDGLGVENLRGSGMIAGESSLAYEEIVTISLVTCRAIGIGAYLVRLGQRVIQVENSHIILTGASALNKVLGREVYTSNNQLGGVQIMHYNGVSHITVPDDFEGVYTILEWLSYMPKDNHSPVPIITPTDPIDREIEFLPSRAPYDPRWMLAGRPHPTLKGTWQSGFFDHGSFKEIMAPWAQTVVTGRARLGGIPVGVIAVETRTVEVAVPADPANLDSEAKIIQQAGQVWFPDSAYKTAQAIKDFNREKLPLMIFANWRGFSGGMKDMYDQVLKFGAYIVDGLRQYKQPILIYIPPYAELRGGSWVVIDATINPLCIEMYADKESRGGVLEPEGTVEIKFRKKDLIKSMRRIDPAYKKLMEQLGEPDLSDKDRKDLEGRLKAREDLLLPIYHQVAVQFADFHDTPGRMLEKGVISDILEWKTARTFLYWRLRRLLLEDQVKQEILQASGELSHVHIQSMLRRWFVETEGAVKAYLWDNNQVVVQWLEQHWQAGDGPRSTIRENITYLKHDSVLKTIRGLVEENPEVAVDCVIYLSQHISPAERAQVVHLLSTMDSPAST
The experiment can be described thus: Transcreener ADP detection FP assay, recombinant human ACC2 inhibition. In kind it is biochemical. To be noted: recombinant human ACC2, 50 μM ATP; read-out: Transcreener Assay hACC2 IC50.

For experiment [3], the system named is SZ95 human sebocyte cells. The experiment can be described thus: Inhibition of de novo lipogenesis (14C-acetate incorporation) in cultured human sebocytes. To be noted: SZ95 sebocytes, 14C-acetate incorporation into lipids relative to vehicle, read-out: C9302E Sebocyte IC50. It is filed as cell-based. The method, then:
SZ95 sebocytes were grown in Human Sebocyte Growth Medium (HSGM) (Sebomed® medium (Biochrom: F8205) supplemented with 10% heat-inactivated fetal bovine serum, 1% penicillin/streptomycin, 1 mM calcium chloride and 5 ng/mL recombinant human epidermal growth factor (Life Tech: PHG0311)). At 90% confluence, cells were washed three times with PBS and then detached with 0.05% Trypsin-EDTA. Cells were centrifuged and resuspended in HSGM containing 10% charcoal-stripped serum (Life Tech: 12676-029). Cells were then plated in 24-well plates at a density of 0.25×10^6 cells/well and were incubated overnight to enable cell adherence to the culture plate.
Cells were treated with a dose response of compound, and each dose was assayed in triplicate. Briefly, compounds were dissolved in DMSO stocks and diluted 1:1000 into charcoal-stripped media. 0.1% DMSO without compound was used as the vehicle control. After a 1 hour preincubation with compound or vehicle, 0.25 μCi ^14C-acetic acid (American Radiolabeled Chemicals: ARC0158B) was added to each well. Plates were then incubated for an additional two hours. At the end of the incubation period, cells were removed from incubator, placed on ice, and then washed twice with ice-cold PBS to remove free ^14C-acetic acid. Plates were sealed and stored at −20° C. until analysis.
Plates were shaken for 1 hour at room temperature to induce lysis. Lysates were transferred to individual 1.5 mL polypropylene tubes, and wells were washed with 175 μl of PBS, which was added to lysates. 450 μl of a 1:1 (v/v) chloroform:methanol solution was then added to each tube, and then all tubes were vortexed for 10 seconds and centrifuged at 20,000×g for 5 minutes at room temperature to separate aqueous from organic phase. A 25 μl aliquot was removed from the bottom organic layer of each sample and added to 6 mL OptiPhase supermix (PerkinElmer: 1200-439) scintillation fluid. Counts of ^14C incorporated into lipids were assessed by scintillation counting. DNL (counts of ^14C incorporated into lipids) was expressed for compound treated cells relative to DNL in the vehicle control treated cells for determination of EC50 values. For a subset of the compounds tested, a second aliquot (3×35 μl) of the organic layer of each sample was removed and applied to a TLC lane (Analtech Silica Gel G Plates). Radiolabeled lipids were resolved using a 2-solvent system. Solvent 1 contained a 100:100:100:40:36 mixture of ethyl acetate:isopropyl alcohol:CHCl3:MeOH:0.25% KCl and solvent 2 a 70:27:3 hexane:diethyl ether:acetic acid mix. The TLC plate was dried under nitrogen for 30 minutes and [^14C]-calibrators added to a vacant lane. Bands were visualized and quantitated using a Molecular Dynamics' Storm 860 Phosphorimager system following 18-36 hours exposure to a Phosphorimager screen.

The target in another experiment is hACC1 (Homo sapiens, UniProt Q13085). The experiment can be described thus: Radiometric ACC1 inhibition assay. It is filed as biochemical.
A further experiment deals with hACC2 (Homo sapiens, UniProt O00763). The experiment can be described thus: Radiometric ACC2 inhibition assay. It is filed as biochemical.
Chain of hACC2 (O00763 whole entry): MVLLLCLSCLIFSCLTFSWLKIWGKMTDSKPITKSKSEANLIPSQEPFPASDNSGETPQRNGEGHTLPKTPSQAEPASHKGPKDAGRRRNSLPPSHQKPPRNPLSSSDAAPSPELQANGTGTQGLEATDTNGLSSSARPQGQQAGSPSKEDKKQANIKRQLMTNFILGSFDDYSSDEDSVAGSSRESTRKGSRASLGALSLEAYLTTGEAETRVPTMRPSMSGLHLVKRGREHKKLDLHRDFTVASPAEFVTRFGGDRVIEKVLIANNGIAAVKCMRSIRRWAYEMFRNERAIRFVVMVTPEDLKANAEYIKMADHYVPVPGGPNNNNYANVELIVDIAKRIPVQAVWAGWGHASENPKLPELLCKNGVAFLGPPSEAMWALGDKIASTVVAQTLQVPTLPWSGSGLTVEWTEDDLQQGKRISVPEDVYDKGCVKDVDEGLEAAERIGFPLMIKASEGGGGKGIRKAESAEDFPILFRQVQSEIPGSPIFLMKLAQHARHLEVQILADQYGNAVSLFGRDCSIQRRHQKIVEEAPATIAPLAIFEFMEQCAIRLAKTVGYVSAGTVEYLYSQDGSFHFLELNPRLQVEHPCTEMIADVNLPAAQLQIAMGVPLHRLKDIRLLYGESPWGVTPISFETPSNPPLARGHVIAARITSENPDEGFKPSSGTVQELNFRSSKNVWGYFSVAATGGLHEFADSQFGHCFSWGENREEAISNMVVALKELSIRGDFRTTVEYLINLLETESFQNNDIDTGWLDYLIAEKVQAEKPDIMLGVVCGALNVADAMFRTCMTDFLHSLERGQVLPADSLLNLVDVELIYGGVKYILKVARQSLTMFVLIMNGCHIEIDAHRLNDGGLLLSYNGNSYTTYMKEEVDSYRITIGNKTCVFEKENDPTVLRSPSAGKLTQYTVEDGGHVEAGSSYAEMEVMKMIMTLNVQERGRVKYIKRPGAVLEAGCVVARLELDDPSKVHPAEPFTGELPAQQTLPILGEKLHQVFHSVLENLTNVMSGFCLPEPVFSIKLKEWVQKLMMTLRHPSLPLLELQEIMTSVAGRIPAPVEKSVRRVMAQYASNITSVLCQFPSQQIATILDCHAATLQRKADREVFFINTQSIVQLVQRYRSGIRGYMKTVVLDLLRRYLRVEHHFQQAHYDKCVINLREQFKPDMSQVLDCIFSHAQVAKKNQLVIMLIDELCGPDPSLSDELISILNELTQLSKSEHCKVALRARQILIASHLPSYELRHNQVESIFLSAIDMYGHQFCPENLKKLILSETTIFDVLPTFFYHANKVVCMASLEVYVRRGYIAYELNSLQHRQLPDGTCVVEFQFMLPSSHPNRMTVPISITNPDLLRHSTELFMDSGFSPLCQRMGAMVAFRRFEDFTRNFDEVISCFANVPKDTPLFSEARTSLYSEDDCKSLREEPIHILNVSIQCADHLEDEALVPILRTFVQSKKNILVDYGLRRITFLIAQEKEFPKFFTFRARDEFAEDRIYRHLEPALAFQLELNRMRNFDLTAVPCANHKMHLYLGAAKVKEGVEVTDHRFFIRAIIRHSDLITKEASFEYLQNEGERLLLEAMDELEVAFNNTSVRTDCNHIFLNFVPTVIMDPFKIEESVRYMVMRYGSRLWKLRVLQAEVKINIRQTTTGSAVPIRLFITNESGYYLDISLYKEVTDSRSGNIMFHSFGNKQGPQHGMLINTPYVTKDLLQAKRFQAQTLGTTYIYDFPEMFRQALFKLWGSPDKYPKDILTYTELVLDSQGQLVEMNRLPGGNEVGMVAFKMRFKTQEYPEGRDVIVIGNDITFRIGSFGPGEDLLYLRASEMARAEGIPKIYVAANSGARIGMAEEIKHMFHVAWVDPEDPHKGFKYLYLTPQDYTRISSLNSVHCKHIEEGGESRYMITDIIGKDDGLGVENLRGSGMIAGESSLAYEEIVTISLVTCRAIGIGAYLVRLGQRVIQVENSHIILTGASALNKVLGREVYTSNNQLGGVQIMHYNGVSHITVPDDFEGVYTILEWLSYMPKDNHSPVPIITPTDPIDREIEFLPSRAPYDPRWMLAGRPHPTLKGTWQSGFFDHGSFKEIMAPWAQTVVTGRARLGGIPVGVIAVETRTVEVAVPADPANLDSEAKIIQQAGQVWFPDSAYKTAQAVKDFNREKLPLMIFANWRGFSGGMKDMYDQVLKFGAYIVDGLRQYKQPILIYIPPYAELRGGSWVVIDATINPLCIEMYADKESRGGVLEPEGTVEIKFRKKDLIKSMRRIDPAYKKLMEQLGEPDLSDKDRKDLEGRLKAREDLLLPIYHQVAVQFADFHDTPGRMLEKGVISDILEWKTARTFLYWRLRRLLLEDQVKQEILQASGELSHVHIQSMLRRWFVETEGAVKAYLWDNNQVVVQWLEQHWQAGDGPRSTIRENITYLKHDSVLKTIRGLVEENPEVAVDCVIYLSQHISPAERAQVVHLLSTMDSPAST

Read-outs that look alike come from different tables or passages of the source.

What is called IC50 is the concentration that inhibits the measured activity by half. Take `CC(=O)NCC(C)c1ccc2nc(Oc3ccc(OCC4CC4)nc3)sc2c1` (stereo not shown) [Example 15, N-(2-(2-((6-(cyclopropylmethoxy)pyridin-3-yl)oxy)benzo[d]thiazol-6-yl)propyl)acetamide]: the values for the IC50 in experiment [1], in experiment [2] and in experiment [3] (Homo sapiens) were 2200 nM, 1100 nM and 4310 nM, respectively.
As to `CCCCCCCCCCCCCCOc1ccc(C(=O)OC(C)C)o1` [Example 18, isopropyl 5-(tetradecyloxy)furan-2-carboxylate], the IC50 against hACC1 was above 10000 nM.
As for `CCCCC1=NC2(CCN(C(=O)c3c(NC(=O)NCC)sc4ccccc34)CC2)C(=O)N1` [Example 20, 1-(3-(2-butyl-4-oxo-1,3,8-triazaspiro[4.5]dec-1-ene-8-carbonyl)benzo[b]thiophen-2-yl)-3-ethyl urea], the IC50 stood at 11000 nM in experiment [1] and 2200 nM in experiment [2].
With `CO[C@H]1CCCC[C@@H](c2ccccc2)OC(=O)[C@@H](C)[C@@]2(O)O[C@H]([C@@H](C)[C@H](O)[C@H]2OC)[C@@H](C)/C=C/[C@H]1OC` [Example 9, reference compound], the IC50 came out at 20 nM in experiment [1]; 16 nM against hACC2; 1200 nM in experiment [2]; 4 nM in experiment [3] (Homo sapiens); 140 nM against hACC1.
On the same counts, the results for `COc1ccc2ccc(C(=O)N3CCC4(CC3)CC(=O)c3c(cnn3C(C)C)C4)cc2c1` [Example 2, 1-isopropyl-1′-(7-methoxy-2-naphthoyl)-4,6-dihydrospiro[indazole-5,4′-piperidin]-7(1H)-one] are 4 nM, 4 nM, 2 nM, 28.2 nM and 3 nM.
For the compound `CC(C)n1ncc2c1C(=O)CC1(CCN(C(=O)c3ccc4[nH]ncc4c3)CC1)C2` [Example 5, 1′-(1H-indazole-5-carbonyl)-1-isopropyl-4,6-dihydrospiro[indazole-5,4′-piperidin]-7(1H)-one], the IC50 in experiment [1] is 62 nM; against hACC2, 8 nM; in experiment [2], 30 nM; in experiment [3] (Homo sapiens) it was 201 nM; against hACC1 it was 5 nM.
As to `CC(C)n1ncc2c1C(=O)CC1(CCN(C(=O)c3ccc4[nH]nc(C#N)c4c3)CC1)C2` [Example 6, 5-(1-isopropyl-7-oxo-1,4,6,7-tetrahydrospiro[indazole-5,4′-piperidin]-1′-ylcarbonyl)-1H-indazole-3-carbonitrile], the half-inhibitory concentration (IC50) was 4 nM against hACC2, 103 nM in experiment [3] and 5 nM against hACC1.
For the compound `CC(C)n1ncc2c1C(=O)CC1(CCN(C(=O)c3ccc4ccc(NC(C)(C)C)nc4c3)CC1)C2` [Example 4, 1′-(2-(tert-butylamino)quinoline-7-carbonyl)-1-isopropyl-4,6-dihydrospiro[indazole-5,4′-piperidin]-7(1H)-one], the IC50 came out at 17 nM in experiment [1]; 5 nM at hACC2; 12 nM in experiment [2]; 15 nM in experiment [3] (Homo sapiens); 6 nM on hACC1.
On the same counts, the results for `CC(=O)N[C@@H](C)C#Cc1ccc(Oc2ccc(OC(C)C)cc2)cc1` [Example 12, (S)—N-(4-(4-(4-isopropoxyphenoxy)phenyl)but-3-yn-2-yl)acetamide] are 141 nM, 2 nM, 29 nM, 121 nM and 26 nM.
`CC(=O)N[C@@H](C)CCc1ccc(Oc2ccc(OC(C)C)cc2)cc1` [Example 23, (S)—N-(4-(4-(4-isopropoxyphenoxy)phenyl)butan-2-yl)acetamide]: the half-maximal inhibitory concentration (IC50) in experiment [1] amounted to 680 nM; on hACC2 it was 16 nM; in experiment [2], 109 nM; on hACC1 it was 687 nM.
`COc1cc(C(=O)N2CCC3(CC2)CC(=O)c2cc(-c4nnn[nH]4)ccc2O3)cc2c1ccn2C1CC1` [Example 10, 1′-(1-cyclopropyl-4-methoxy-1H-indole-6-carbonyl)-6-(1H-tetrazol-5-yl)spiro[chromane-2,4′-piperidin]-4-one]: the values for the half-maximal inhibitory concentration (IC50) in experiment [1], in experiment [2] and in experiment [3] (Homo sapiens) were 16 nM, 4 nM and 1690 nM, respectively.
`CCCCCCCCCCCCCCOc1ccc(C(=O)OCC(F)(F)F)o1` [Example 17, 2,2,2-trifluoroethyl 5-(tetradecyloxy)furan-2-carboxylate] showed a 50% inhibitory concentration (IC50) against hACC1 above 10000 nM.
For the compound `CCCOc1ccc(Oc2ccc(-c3ccc(C(C)NC(C)=O)cc3)cn2)cc1` (stereo not shown) [Example 13, N-(1-(4-(6-(4-propoxyphenoxy)pyridin-3-yl)phenyl)ethyl)acetamide, reference compound], the results for the concentration for half-maximal inhibition (IC50) in experiment [1], in experiment [2] and in experiment [3] (Homo sapiens) were above 2980 nM, 180 nM and 3280 nM, respectively.
Take `O=C(O)CCc1ccc(-c2ccc(S(=O)(=O)N[C@H]3CC[C@H](C(=O)N4CCOC[C@@H]4c4ccccc4)CC3)cc2)cc1` [Example 24, 3-(4′-(N-((1S,4r)-4-((S)-3-phenylmorpholine-4-carbonyl)cyclohexyl)sulfamoyl)-[1,1′-biphenyl]-4-yl)propanoic acid]: the concentration for half-maximal inhibition (IC50) in experiment [1] was found to be 41 nM; in experiment [2] it was 28 nM.
Turning to `CCCCCCCCCCCCCCOc1ccc(C(=O)OCc2oc(=O)oc2C)o1` [Example 19, (5-methyl-2-oxo-1,3-dioxol-4-yl)methyl 5-(tetradecyloxy)furan-2-carboxylate], on hACC1, the IC50 is above 10000 nM.
For `CC(=O)NC(C)c1ccc(-c2cnc(Oc3ccc(OCC4CC4)cc3)s2)cc1` (stereo not shown) [Example 22, N-(1-(4-(2-(4-(cyclopropylmethoxy)phenoxy)thiazol-5-yl)phenyl)ethyl)acetamide], the values for the half-inhibitory concentration (IC50) in experiment [1] and in experiment [2] were 4050 nM and 957 nM, respectively.
`CC(C)(O)[C@@H](NC(=O)[C@H]1CC[C@H](NS(=O)(=O)c2ccc(C(F)(F)F)cc2)CC1)c1ccccc1` [Example 16, (1R,4S)—N—((S)-2-hydroxy-2-methyl-1-phenylpropyl)-4-((4-(trifluoromethyl)phenyl)sulfonamido)cyclohexane-1-carboxamide]: the IC50 amounted to 74 nM in experiment [1], 69 nM in experiment [2] and 2770 nM in experiment [3] (Homo sapiens).
With `CC(=O)N[C@@H](C)c1cc(-c2cnc(Oc3ccc(OCC4CC4)cc3)s2)no1` [Example 21, (S)—N-(1-(3-(2-(4-(cyclopropylmethoxy)phenoxy)thiazol-5-yl)isoxazol-5-yl)ethyl)acetamide], the IC50 came to 44 nM in experiment [1], 2 nM at hACC2, 7 nM in experiment [2] and 98 nM at hACC1.
Take `COc1nccc2ccc(C(=O)N3CCC4(CC3)Cc3cn(C(C)(C)C)nc3C(=O)N4)cc12` [Example 7, 2′-(tert-butyl)-1-(1-methoxyisoquinoline-7-carbonyl)-4′,6′-dihydrospiro[piperidine-4,5′-pyrazolo[3,4-c]pyridin]-7′(2′H)-one]: the IC50 in experiment [3] (Homo sapiens) is 94 nM.
Regarding `CC(C)n1ncc2c1C(=O)CC1(CCN(C(=O)c3ccc4[nH]nc(C#N)c4c3)CC1)C2` [Example 11, 5-(1-isopropyl-7-oxo-1,4,6,7-tetrahydrospiro[indazole-5,4′-piperidine]-1′-carbonyl)-1H-indazole-3-carbonitrile], the concentration for half-maximal inhibition (IC50) at hACC2 stood at 7 nM; in experiment [3] it was 217 nM; against hACC1, 4 nM.
